Experiments:
[1] = molecular target: T1, α1A-adrenergic (Homo sapiens, UniProt P35348); settings: background statement; cited from earlier work
T1 sequence (P35348 1-466): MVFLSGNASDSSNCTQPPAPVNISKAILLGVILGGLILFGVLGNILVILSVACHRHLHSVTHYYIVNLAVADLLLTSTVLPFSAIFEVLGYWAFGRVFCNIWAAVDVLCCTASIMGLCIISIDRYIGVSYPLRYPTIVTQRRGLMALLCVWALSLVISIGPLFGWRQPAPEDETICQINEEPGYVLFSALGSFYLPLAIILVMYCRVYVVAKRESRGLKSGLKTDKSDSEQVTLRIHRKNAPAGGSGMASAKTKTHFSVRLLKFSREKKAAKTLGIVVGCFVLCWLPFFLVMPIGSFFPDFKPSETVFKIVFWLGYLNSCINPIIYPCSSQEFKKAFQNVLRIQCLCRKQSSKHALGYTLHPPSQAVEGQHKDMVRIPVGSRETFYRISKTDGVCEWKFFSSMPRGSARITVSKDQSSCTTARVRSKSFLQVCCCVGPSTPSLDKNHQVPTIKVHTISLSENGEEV

[2] = tested on: patients with negative symptoms of schizophrenia; test: Study #1 (MIN-101C03): Personal and Social Performance (PSP); assay type: in vivo, human; settings: Week 12 DB; for Change from Baseline LS Mean: PSP Disturbing & Aggressive Behavior / Change from Baseline LS Mean: PSP Personal and Social Relationships / Change from Baseline LS Mean: PSP Self-care / Change from Baseline LS Mean: PSP Socially Useful Activities / Change from Baseline LS Mean: PSP Total Score (mapped from the 4 domains) / Effect Size vs Placebo: PSP Disturbing & Aggressive Behavior / Effect Size vs Placebo: PSP Personal and Social Relationships / Effect Size vs Placebo: PSP Self-care / Effect Size vs Placebo: PSP Socially Useful Activities / Effect Size vs Placebo: PSP Total Score (mapped from the 4 domains): ITT
Source text: The PSP is a validated clinician-rated scale intended to reflect real-life situations that measures personal and social functioning in 4 domains: (a) socially useful activities, (b) personal and social relationships, (c) self-care, and (d) disturbing and aggressive behaviors. The score is based on the assessment of a patient's performance in the 4 domains. The PSP Total score is a single measurement of functioning ranging from 1 to 100, where a higher score represents better functioning. A score of 91 to 100 indicates excellent functioning in all 4 main areas; the patient is held in high consideration for their good qualities, copes adequately with life problems, and is involved in a wide range of interests and activities. A score of 1 to 10 indicates a lack of autonomy in basic functioning with extreme behaviors but without survival risk (score 6 to 10) or with survival risk (score 1 to 5). […] Review of the relevant scientific literature and the analysis of the psychometric properties of the 4 domains that result in the generation of the PSP Total score were supportive of the appropriateness and cross-cultural applicability of the use of the PSP in drug development for the indication of negative symptoms of schizophrenia The PSP was assessed at the timepoints described in Table 6. The changes from Baseline in the PSP Total score and individual domain scores after 12 weeks of treatment were exploratory efficacy endpoints in Study MIN-101C03, and the Total score was the key secondary efficacy endpoint and the PSP domain scores were exploratory endpoints in Study MIN-101C07.
Phase 2b Study #1 (also referred to herein as “MIN-101C03”) was a Phase 2b, double-blind (“DB”), placebo-controlled, randomized, multicenter 12-week study to evaluate the efficacy, safety, and tolerability of Roluperidone in patients ≥18 years to ≤60 years with negative symptoms of schizophrenia, followed by a 24-week open-label (“OL”) extension. The primary objective of the study was to evaluate the efficacy of Roluperidone compared to placebo in improving the negative symptoms of schizophrenia as measured by the change from Baseline in the PANSS negative factor score of the PSM (“PANSS PSM”) over 12 weeks of treatment.
The study consisted of a pretreatment screening period of up to 28 days (including washout), a 12-week, DB, placebo-controlled period, and a 24-week OL period. Eligible patients (who were symptomatically stable for at least 3 months and had scores of at least 20 on the PANSS negative subscale score) were randomized in a 1:1:1 ratio to receive oral Roluperidone (a modified-release, “MR”, formulation) 32 mg QD, Roluperidone 64 mg QD, or placebo for 12 weeks. […] During the 24-week, OL treatment extension period, patients who were initially randomized to Roluperidone 32 mg or 64 mg continued on the same dose, while patients who were initially randomized to placebo crossed over to Roluperidone 32 mg or 64 mg in a 1:1 ratio.

1H-Isoindol-1-one,2-[ [1-[2-(4-fluorophenyl)-2-oxoethyl]-4-piperidinyl]methyl]-2,3-dihydro-, hydrochloride, hydrate (1:1:2) [Roluperidone]
Antagonistic activity [1]: antagonistic activities | Effect Size vs Placebo: 7-Point improvement in PSP Total Score responders ([2]; 32 mg QD): 0.05 | Effect Size vs Placebo: 10-Point improvement in PSP Total Score responders ([2]; 32 mg QD): 0.05 | Number of Patients with 7-Point improvement in PSP Total Score at Week 12 ([2]; 32 mg QD): 17/50 | Number of Patients with 10-Point improvement in PSP Total Score at Week 12 ([2]; 32 mg QD): 17/50 | Patients with 7-Point improvement in PSP Total Score at Week 12 (%) ([2]; 32 mg QD): (34%) | Patients with 10-Point improvement in PSP Total Score at Week 12 (%) ([2]; 32 mg QD): (34%) | Change from Baseline LS Mean: PSP Disturbing & Aggressive Behavior ([2]; 32 mg QD): −0.15 | Change from Baseline LS Mean: PSP Personal and Social Relationships ([2]; 32 mg QD): −0.22 | Change from Baseline LS Mean: PSP Self-care ([2]; 32 mg QD): −0.37 | Change from Baseline LS Mean: PSP Socially Useful Activities ([2]; 32 mg QD): −0.41 | Change from Baseline LS Mean: PSP Total Score (mapped from the 4 domains) ([2]; 32 mg QD): 1.77 | Effect Size vs Placebo: PSP Disturbing & Aggressive Behavior ([2]; 32 mg QD): 0.36 | Effect Size vs Placebo: PSP Personal and Social Relationships ([2]; 32 mg QD): 0.02 | Effect Size vs Placebo: PSP Self-care ([2]; 32 mg QD): 0.27 | Effect Size vs Placebo: PSP Socially Useful Activities ([2]; 32 mg QD): 0.14 | Effect Size vs Placebo: PSP Total Score (mapped from the 4 domains) ([2]; 32 mg QD): −0.01 | Effect Size vs Placebo: 7-Point improvement in PSP Total Score responders ([2]; 64 mg QD): 0.17 | Effect Size vs Placebo: 10-Point improvement in PSP Total Score responders ([2]; 64 mg QD): 0.17 | Number of Patients with 7-Point improvement in PSP Total Score at Week 12 ([2]; 64 mg QD): 26/54 | Number of Patients with 10-Point improvement in PSP Total Score at Week 12 ([2]; 64 mg QD): 26/54 | Change from Baseline LS Mean: PSP Disturbing & Aggressive Behavior ([2]; 64 mg QD): −0.24 | Change from Baseline LS Mean: PSP Personal and Social Relationships ([2]; 64 mg QD): −0.56 | Change from Baseline LS Mean: PSP Self-care ([2]; 64 mg QD): −0.48 | Change from Baseline LS Mean: PSP Socially Useful Activities ([2]; 64 mg QD): −0.57 | Change from Baseline LS Mean: PSP Total Score (mapped from the 4 domains) ([2]; 64 mg QD): 8.52 | Effect Size vs Placebo: PSP Disturbing & Aggressive Behavior ([2]; 64 mg QD): 0.51 | Effect Size vs Placebo: PSP Personal and Social Relationships ([2]; 64 mg QD): 0.53 | Effect Size vs Placebo: PSP Self-care ([2]; 64 mg QD): 0.46 | Effect Size vs Placebo: PSP Socially Useful Activities ([2]; 64 mg QD): 0.38 | Effect Size vs Placebo: PSP Total Score (mapped from the 4 domains) ([2]; 64 mg QD): 0.56
